Results published in ChEMBL document CHEMBL4765331, “Amides of pyrrole- and thiophene-fused anthraquinone derivatives: A role of the heterocyclic core in antitumor properties” (Eur J Med Chem, 2020).
Activity calls are given as the source filed them. No cut-off for these calls is given here.

What was measured:
CAPAN-1 = test: Antiproliferative activity against human CAPAN-1 cells assessed as inhibition of cell proliferation measured after 72 hrs by MTT assay; type: functional, cell-based; details: CAPAN-1, 72 h
HCT-116 [1] = test: Antiproliferative activity against human HCT-116 cells assessed as inhibition of cell proliferation measured after 72 hrs by MTT assay; type: functional, cell-based; details: HCT-116, 72 h
NCI-H460 = test: Antiproliferative activity against human NCI-H460 cells assessed as inhibition of cell proliferation measured after 72 hrs by MTT assay; type: functional, cell-based; details: NCI-H460, 72 h
HL-60 = test: Antiproliferative activity against human HL-60 cells assessed as inhibition of cell proliferation measured after 72 hrs by MTT assay; type: functional, cell-based; details: HL-60, 72 h
K562 [2] = test: Antiproliferative activity against human K562 cells assessed as inhibition of cell proliferation measured after 72 hrs by MTT assay; type: functional, cell-based; details: K562, 72 h
[3] = Antiproliferative activity against P-gp-positive/doxorubicin-resistant human K562/4 cells assessed as inhibition of cell proliferation measured after 72 hrs by MTT assay; type: functional; details: K562/4, 72 h
HCT-116 [4] = test: Antiproliferative activity against human HCT-116 cells with inactivated p53 gene assessed as inhibition of cell proliferation measured after 72 hrs by MTT assay; type: functional, cell-based; details: HCT-116, 72 h
TERT-RPE1 = test: Cytotoxicity against human TERT-RPE1 cells assessed as inhibition of cell proliferation measured after 72 hrs by MTT assay; type: cell-based; details: RPE-1, 72 h
[5] = Selectivity index, ratio of IC50 for human TERT-RPE1 cells to IC50 for human CAPAN-1 cells
[6] = Resistance index, ratio of IC50 for human P-gp-positive/Doxorubicin-resistant K562/4 cells to IC50 for human K562 cells; type: functional
Calf thymus DNA [7] = test: Binding affinity to calf thymus double stranded DNA at 10 uM measured after 5 mins by flourescence spectroscopy method; details: Bos taurus
Calf thymus DNA [8] = test: Binding affinity to calf thymus DNA assessed as DNA intercalation by measuring decrease of negative DNA band at 245 nm at 50 uM by circular dichroism spectral analysis; type: tissue-based; details: Bos taurus
Calf thymus DNA [9] = test: Binding affinity to calf thymus DNA assessed as binding constant by scatchard plot analysis; details: Bos taurus
Calf thymus DNA [10] = test: Binding affinity to calf thymus DNA assessed as dissociation constant by scatchard plot analysis; set-up: species or system Bos taurus
Calf thymus DNA [11] = test: Binding affinity to calf thymus DNA assessed as stoichiometry ratio of compound-DNA complex formation by scatchard plot analysis; details: Bos taurus
[12] = molecular target: T1, DNA topoisomerase 1 (Homo sapiens) (UniProt P11387); test: Inhibition of human topoisomerase 1-mediated relaxation of supercoiled plasmid using pBR322 plasmid as substrate at 40 uM measured after 30 mins by ethidium bromide dye based agarose gel electrophoresis method
T1 sequence (whole entry): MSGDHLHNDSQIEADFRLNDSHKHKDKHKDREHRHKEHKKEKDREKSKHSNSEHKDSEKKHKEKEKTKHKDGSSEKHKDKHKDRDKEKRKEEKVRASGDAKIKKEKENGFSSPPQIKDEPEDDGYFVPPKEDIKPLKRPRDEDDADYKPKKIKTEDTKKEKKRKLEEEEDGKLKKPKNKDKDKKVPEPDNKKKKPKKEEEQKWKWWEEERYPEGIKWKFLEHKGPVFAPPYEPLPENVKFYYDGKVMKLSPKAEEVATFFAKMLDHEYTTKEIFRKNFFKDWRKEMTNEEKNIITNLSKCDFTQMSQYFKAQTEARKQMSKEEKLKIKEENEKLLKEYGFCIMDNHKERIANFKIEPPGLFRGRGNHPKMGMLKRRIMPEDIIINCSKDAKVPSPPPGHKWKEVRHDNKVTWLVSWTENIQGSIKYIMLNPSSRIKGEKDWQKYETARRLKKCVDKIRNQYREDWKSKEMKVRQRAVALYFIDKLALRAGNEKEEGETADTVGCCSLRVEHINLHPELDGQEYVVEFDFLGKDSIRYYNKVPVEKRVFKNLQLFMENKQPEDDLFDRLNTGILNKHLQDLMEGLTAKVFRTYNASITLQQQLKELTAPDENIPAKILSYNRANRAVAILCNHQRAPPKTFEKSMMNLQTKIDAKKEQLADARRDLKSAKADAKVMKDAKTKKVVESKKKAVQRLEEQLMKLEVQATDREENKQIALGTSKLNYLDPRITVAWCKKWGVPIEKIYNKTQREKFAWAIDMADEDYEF

[13] = Drug uptake in mouse NIH3T3 cells assessed as compound localization in nucleus at 1 uM measured after 15 mins by laser scanning microscope; type: ADME, subcellular; details: nih3t3, 0.25 h
[14] = Drug uptake in mouse NIH3T3 cells assessed as compound localization in mitochondria at 1 uM measured after 15 mins by Mitotracker Green FM dye based laser scanning microscope; type: ADME; details: nih3t3, 0.25 h
[15] = Drug uptake in mouse NIH3T3 cells assessed as compound localization in cytoplasm at 1 uM measured after 15 mins by laser scanning microscope; type: ADME, subcellular; details: nih3t3, 0.25 h
K562 [16] = test: Induction of apoptosis in human K562 cells assessed as viable cells at 3.2 uM measured after 24 hrs by Annexin V-APC/PI staining based flow cytometry assay (reference value: 85.9%); type: functional; details: read-out: Activity
K562 [17] = test: Induction of apoptosis in human K562 cells assessed as viable cells at 3.2 uM measured after 48 hrs by Annexin V-APC/PI staining based flow cytometry assay (reference value: 85.9%); type: functional; details: read-out: Activity
K562 [18] = test: Induction of apoptosis in human K562 cells assessed as early apoptotic cells at 3.2 uM measured after 24 hrs by Annexin V-APC/PI staining based flow cytometry assay (reference value: 3.4%); type: functional
K562 [19] = test: Induction of apoptosis in human K562 cells assessed as early apoptotic cells at 3.2 uM measured after 48 hrs by Annexin V-APC/PI staining based flow cytometry assay (reference value: 3.4%); type: functional
K562 [20] = test: Induction of apoptosis in human K562 cells assessed as late apoptotic cells at 3.2 uM measured after 24 hrs by Annexin V-APC/PI staining based flow cytometry assay (reference value: […]); type: functional
K562 [21] = test: Induction of apoptosis in human K562 cells assessed as late apoptotic cells at 3.2 uM measured after 48 hrs by Annexin V-APC/PI staining based flow cytometry assay (reference value: […]); type: functional
K562 [22] = test: Induction of apoptosis in human K562 cells assessed as necrotic cells at 3.2 uM measured after 24 hrs by Annexin V-APC/PI staining based flow cytometry assay (reference value: 3.9%); type: functional
K562 [23] = test: Induction of apoptosis in human K562 cells assessed as necrotic cells at 3.2 uM measured after 48 hrs by Annexin V-APC/PI staining based flow cytometry assay (reference value: 3.9%); type: functional
K562 [24] = test: Induction of oxidative stress in human K562 cells assessed as increase in intracellular ROS generation at 3.2 uM measured after 40 mins by Deep Red dye based flow cytometry method; type: functional, cell-based
[25] = Selectivity index, ratio of IC50 for human TERT-RPE1 cells to IC50 for human HCT-116 cells; type: toxicity; details: TERT-RPE1 cells and HCT-116 cells, read-out: Ratio IC50
[26] = Selectivity index, ratio of IC50 for human TERT-RPE1 cells to IC50 for human NCI-H460 cells; type: toxicity; details: TERT-RPE1 cells and NCI-H460 cells, read-out: Ratio IC50
[27] = Selectivity index, ratio of IC50 for human TERT-RPE1 cells to IC50 for human HL-60 cells; type: toxicity; details: TERT-RPE1 cells and HL-60 cells, read-out: Ratio IC50
[28] = Selectivity index, ratio of IC50 for human TERT-RPE1 cells to IC50 for human K562 cells; type: toxicity; details: TERT-RPE1 cells and K562 cells, read-out: Ratio IC50
[29] = Drug uptake in P-gp-positive/doxorubicin-resistant human K562/4 cells; type: ADME
[30] = Drug uptake in human K562i/S9 cells harboring exogenously expressed MDR1/Pgp; type: ADME, cell-based
K562 [31] = test: Induction of cell cycle arrest in human K562 cells assessed as accumulation at G2/M phase at 2XIC50 measured after 24 hrs by propidium iodide/RNase staining based flow cytometry; type: functional
K562 [32] = test: Induction of cell cycle arrest in human K562 cells assessed as accumulation at G2/M phase at 2XIC50 measured after 48 hrs by propidium iodide/RNase staining based flow cytometry; type: functional
K562 [33] = test: Induction of cell cycle arrest in human K562 cells assessed as accumulation at subG1 phase at 2XIC50 measured after 24 hrs by propidium iodide/RNase staining based flow cytometry; type: functional
K562 [34] = test: Induction of apoptosis in human K562 cells assessed as viable cells at 1.6 uM measured after 24 hrs by Annexin V-APC/PI staining based flow cytometry assay (reference value: 85.9%); type: functional; details: read-out: Activity
K562 [35] = test: Induction of apoptosis in human K562 cells assessed as viable cells at 1.6 uM measured after 48 hrs by Annexin V-APC/PI staining based flow cytometry assay (reference value: 85.9%); type: functional; details: read-out: Activity
K562 [36] = test: Induction of apoptosis in human K562 cells assessed as early apoptotic cells at 1.6 uM measured after 24 hrs by Annexin V-APC/PI staining based flow cytometry assay (reference value: 3.4%); type: functional
K562 [37] = test: Induction of apoptosis in human K562 cells assessed as early apoptotic cells at 1.6 uM measured after 48 hrs by Annexin V-APC/PI staining based flow cytometry assay (reference value: 3.4%); type: functional
K562 [38] = test: Induction of apoptosis in human K562 cells assessed as late apoptotic cells at 1.6 uM measured after 24 hrs by Annexin V-APC/PI staining based flow cytometry assay (reference value: […]); type: functional
K562 [39] = test: Induction of apoptosis in human K562 cells assessed as late apoptotic cells at 1.6 uM measured after 48 hrs by Annexin V-APC/PI staining based flow cytometry assay (reference value: […]); type: functional
K562 [40] = test: Induction of apoptosis in human K562 cells assessed as necrotic cells at 1.6 uM measured after 24 hrs by Annexin V-APC/PI staining based flow cytometry assay (reference value: 3.9%); type: functional
K562 [41] = test: Induction of apoptosis in human K562 cells assessed as necrotic cells at 1.6 uM measured after 48 hrs by Annexin V-APC/PI staining based flow cytometry assay (reference value: 3.9%); type: functional
K562 [42] = test: Induction of oxidative stress in human K562 cells assessed as increase in intracellular ROS generation at 1.6 uM measured after 40 mins by Deep Red dye based flow cytometry method; type: functional, cell-based
[43] = Toxicity in ip dosed BDF1 mouse xenografted with mouse P388 cells administered qd for 5 days; type: organism-based; details: in vivo, time 5 day

SMILES | IC50 (CAPAN-1) | IC50 (HCT-116 [1]) | IC50 (NCI-H460) | IC50 (HL-60) | IC50 (K562 [2]) | IC50 [3] | IC50 (HCT-116 [4]) | IC50 (TERT-RPE1) | Ratio IC50 [5] | Ratio IC50 [6] | Activity (Calf thymus DNA [7]) | Activity (Calf thymus DNA [8]) | Kb (Calf thymus DNA [9]) | Kd (Calf thymus DNA [10]) | Ratio (Calf thymus DNA [11]) | inhibition [12] | selectivity ratio [25] | selectivity ratio [26] | selectivity ratio [27] | selectivity ratio [28] | other results
N[C@H]1CCN(C(=O)c2csc3c(O)c4c(c(O)c23)C(=O)c2ccccc2C4=O)C1 | 2100 nM | 1800 nM | 2100 nM | 5.5 µM | 1600 nM | 4300 nM | 2200 nM | 12.9 µM | 2 | 2.7 | Active | Active | 2 10^5/M | 5 µM | 2 | Active | 2 | 2 | 2 | 2 | Drug uptake [13]: Active; Drug uptake [14]: Active; Drug uptake [15]: Active; viability at 3.2 µM (K562 [16]): 71.2%; viability at 3.2 µM (K562 [17]): 54.1%; Activity (K562 [18]): 0.8%; Activity (K562 [19]): 0.9%; Activity (K562 [20]): 6.7%; Activity (K562 [21]): 9.9%; Activity (K562 [22]): 21.3%; Activity (K562 [23]): 35.1%; Activity (K562 [24]): Active; Drug uptake [29]: Active; Drug uptake [30]: Active; Activity (K562 [31]): Active; Activity (K562 [32]): Active; Activity (K562 [33]): Active
N[C@H]1CCN(C(=O)c2coc3c(O)c4c(c(O)c23)C(=O)c2ccccc2C4=O)C1 | 300 nM | 1200 nM | 400 nM | 0.5 µM | 900 nM | 1400 nM | 1300 nM | 11.1 µM | 9 | 1.5 | Active | Active | 0.9 10^5/M | 11 µM | 2 | Active | 9 | 9 | 9 | 9 | viability at 1.6 µM (K562 [34]): 70%; viability at 1.6 µM (K562 [35]): 51.9%; Activity (K562 [36]): 1.3%; Activity (K562 [37]): 0.5%; Activity (K562 [38]): 8.1%; Activity (K562 [39]): 9.1%; Activity (K562 [40]): 20.6%; Activity (K562 [41]): 38.6%; Activity (K562 [42]): Active; LD50 at 120 h [43]: 52 mg/kg; Drug uptake [29]: Active; Drug uptake [30]: Active; Activity (K562 [32]): Active
